Experimental data from PMC7982615, “Phase 1 study of telisotuzumab vedotin in Japanese patients with advanced solid tumors” (Cancer Medicine, 2021).
Read-outs that look alike come from different tables or passages of the source. Marks after values point to notes of the source that are not given here. Non-standard residues stand in square brackets, D forms with d. Residues, ends and D or L forms follow the SMILES beside them. *: point of attachment. Dolaproine = CO[C@@H]([C@@H]1CCCN1)[C@@H](C)C(=O)O; Dil = CC[C@H](C)[C@H](NC)[C@@H](CC(=O)O)OC; X1 = C[C@@H](N*)[C@@H](O)c1ccccc1; NMeV = CN[C@H](C(=O)O)C(C)C

Columns and labels:
[1] = Pharmacokinetics of teliso‐v conjugate and MMAE, noncompartmental; format: in vivo, human; settings: for AUCtau, MMAE / Cmax, MMAE: geometric mean (%CV); for t1/2, MMAE: harmonic mean (min-max); for Tmax, MMAE: median (min-max)
Experimental: PK samples were also collected on cycles 2 and 4 predose and approximately 30 minutes after the end of infusion on day 1. PK parameters such as peak concentration (Cmax), time to peak concentration, area under the concentration‐time curve (AUC), and terminal half‐life (t1/2) were determined using noncompartmental methods.

[2] = test system: MET exon 14‐mutated NSCLC; design: method as in earlier work; settings: cited from earlier work
[3] = test system: CD30‐positive Hodgkin lymphoma or systemic anaplastic large cell lymphoma; design: method as in PMID 24814862; settings: US and Japanese patients; cited from earlier work
[4] = cycle 1, after teliso-v 2.4 mg/kg IV, n = 3
[5] = cycle 1, after teliso-v 2.7 mg/kg IV, n = 6

Compound: CC[C@H](C)[C@@H]([C@@H](CC(=O)N1CCC[C@H]1[C@H](OC)[C@@H](C)C(=O)N[C@H](C)[C@@H](O)c1ccccc1)OC)N(C)C(=O)[C@@H](NC(=O)[C@@H](NC)C(C)C)C(C)C [MMAE, monomethyl auristatin E] (H-[NMeV]V[Dil][Dolaproine]-X1)
- t1/2 ([1]; N = 9, both dose levels): 96 to 140 h
- AUCtau, MMAE [1, 4]: 535 (7) ng*h/mL
- Cmax, MMAE [1, 4]: 1.69 (10) ng/mL
- t1/2, MMAE [1, 4]: 5.80 (4.5–7.8) days
- Tmax, MMAE [1, 4]: 168.5 (72.5–168.5) h
- t1/2, MMAE ([1]; cycle 1, after teliso-v 2.7 mg/kg IV, N = 4): 4.01 (3–5.6)^c days
- AUCtau, MMAE [1, 5]: 764 (78) ng*h/mL
- Cmax, MMAE [1, 5]: 2.80 (77) ng/mL
- Tmax, MMAE [1, 5]: 168.5 (72.5–168.5) h
- Plasma Cmax, preliminary geometric mean ([1]; first dose of teliso‐v, cycle 1, across 2.4 and 2.7 mg/kg): 1.69 to 2.80 ng/mL
- Accumulation in cycle 3 ([1]; multiple dosing Q3 W): 1.1–1.2 fold

Compound: CNC(=O)c1ccc(-c2cnc3ncc(Cc4ccc5ncccc5c4)n3n2)cc1F [capmatinib]
- ORR ([2]; one to two prior lines of treatment): 39.1%
- ORR ([2]; treatment‐naive patients): 71.4%

Compound: brentuximab vedotin
- Ethnic differences in PK [3]: no remarkable ethnic differences in PK were found
